Data reported in patent US10000507B2, “Furo- and thieno-pyridine carboxamide compounds useful as pim kinase inhibitors” (Incyte Corporation, priority 2013, dated 2018).

Tests used:
Type in all cases: biochemical
Pim-1 = Pim-1 (Homo sapiens (Human), UniProt P11309); assay: Pim-1 kinase assay; conditions: 1 mM ATP, biotin-labeled BAD peptide substrate; read-out: Pim1 IC50
Summary of the method: (§1)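 Biotin-BAD peptide ([…]) phosphorylated with 1 mM ATP by 2.5 pM Pim-1 or 1.25 pM Pim-3, 1 h at 25 °C in Tris pH 7.5, MgCl2, DTT buffer. EDTA stop with anti-phospho-BAD (Ser112) antibody and AlphaScreen streptavidin donor/Protein-A acceptor beads; signal read after 1 h dark incubation.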

Pim-2 = Pim-2 (Homo sapiens (Human), UniProt Q9P1W9); assay: Pim-2 kinase assay; conditions: 1 mM ATP, fluorescein-labeled CREBtide peptide substrate; read-out: Pim2 IC50
Summary of the method: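 TR-FRET assay: 1 nM Pim-2 with 0.05 μM fluorescein-CREBtide and 1 mM ATP in Tris pH 7.5, 5 mM MgCl2, 5 mM DTT, 2 h at 25 °C. EDTA stop, then Tb-anti-pCREB Ser133 antibody for 30 min before reading.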

Pim-3 = Pim-3 (Homo sapiens (Human), UniProt Q86V86); assay: Pim-3 kinase assay; conditions: 1 mM ATP, biotin-labeled BAD peptide substrate; read-out: Pim3 IC50
Summary of the method: as §1

Pim-1, sequence (P11309 whole entry): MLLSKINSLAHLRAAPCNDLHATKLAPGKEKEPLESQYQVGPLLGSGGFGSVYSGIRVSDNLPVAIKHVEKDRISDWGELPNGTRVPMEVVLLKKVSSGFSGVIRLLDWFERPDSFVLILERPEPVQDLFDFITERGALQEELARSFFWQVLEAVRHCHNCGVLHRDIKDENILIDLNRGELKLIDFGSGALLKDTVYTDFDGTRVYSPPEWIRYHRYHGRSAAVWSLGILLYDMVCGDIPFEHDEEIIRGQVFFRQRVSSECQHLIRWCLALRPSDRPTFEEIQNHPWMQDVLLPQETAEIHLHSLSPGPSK
Pim-2, sequence (Q9P1W9 whole entry): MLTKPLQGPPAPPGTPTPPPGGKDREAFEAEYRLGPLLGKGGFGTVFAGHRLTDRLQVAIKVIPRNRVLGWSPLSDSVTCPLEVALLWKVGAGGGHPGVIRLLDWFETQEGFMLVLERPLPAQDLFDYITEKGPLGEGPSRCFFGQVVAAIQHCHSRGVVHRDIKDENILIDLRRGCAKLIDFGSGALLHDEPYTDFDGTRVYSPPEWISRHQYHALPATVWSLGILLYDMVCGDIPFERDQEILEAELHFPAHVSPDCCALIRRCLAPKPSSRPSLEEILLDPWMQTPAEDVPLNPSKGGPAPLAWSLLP

| Compound | IC50 (Pim-1) [nM] | IC50 (Pim-2) [nM] | IC50 (Pim-3) [nM] |
| --- | --- | --- | --- |
| Nc1oc2cc(CN3CC(F)(F)C3)cnc2c1C(=O)Nc1cnccc1N1C[C@@H](N)C[C@@H](C(F)(F)F)C1 [Example 100, 2-Amino-N-{4-[(3S,5R)-3-amino-5-(trifluoromethyl)piperidin-1-yl]pyridin-3-yl}-6-[(3,3-difluoroazetidin-1-yl)methyl]furo[3,2-b]pyridine-3-carboxamide] | ≤ 10 | 10 to 100 | ≤ 10 |
| Nc1oc2cc(-c3cncnc3)cnc2c1C(=O)Nc1cnccc1N1C[C@@H](N)C[C@@H](C(F)(F)F)C1 [Example 111, 2-Amino-N-{4-[(3S,5R)-3-amino-5-(trifluoromethyl)piperidin-1-yl]pyridin-3-yl}-6-pyrimidin-5-ylfuro[3,2-b]pyridine-3-carboxamide] | ≤ 10 | 10 to 100 | ≤ 10 |
| Cn1ncc(NC(=O)c2c(N)oc3cc(C4CCOCC4)cnc23)c1N1C[C@@H](N)C[C@@H](C(F)(F)F)C1 [Example 90, 2-Amino-N-{5-[(3S,5R)-3-amino-5-(trifluoromethyl)piperidin-1-yl]-1-methyl-1H-pyrazol-4-yl}-6-(tetrahydro-2H-pyran-4-yl)furo[3,2-b]pyridine-3-carboxamide] | ≤ 10 | 10 to 100 | ≤ 10 |
| C[C@H]1CN(c2ccncc2NC(=O)c2c(N)oc3cccnc23)C[C@@H](N)[C@@H]1O [Example 74, 2-Amino-N-{4-[(3R,4R,5S)-3-amino-4-hydroxy-5-methylpiperidin-1-yl]pyridin-3-yl}-furo[3,2-b]pyridine-3-carboxamide] | ≤ 10 | 10 to 100 | ≤ 10 |
| CCc1cnc2c(C(=O)Nc3cnn(C)c3N3CCCC(N)CC3)c(N)sc2c1 (stereo not drawn) [Example 23, 2-Amino-N-[5-(4-aminoazepan-1-yl)-1-methyl-1H-pyrazol-4-yl]-6-ethylthieno[3,2-b]pyridine-3-carboxamide] | ≤ 10 | 10 to 100 | ≤ 10 |
| Cc1noc(C)c1-c1cnc2c(C(=O)Nc3cnn(C)c3N3CCCC(N)CC3)c(N)sc2c1 (stereo not drawn) [Example 29, 2-Amino-N-[5-(4-aminoazepan-1-yl)-1-methyl-1H-pyrazol-4-yl]-6-(3,5-dimethylisoxazol-4-yl)-thieno[3,2-b]pyridine-3-carboxamide] | ≤ 10 | 100 to 1000 | ≤ 10 |
| C[C@H]1C[C@@H](c2ccncc2NC(=O)c2c(N)oc3cccnc23)C[C@@H](N)[C@]1(C)O [Example 83, 2-Amino-N-(4-((1R,3R,4R,5S)-3-amino-4-hydroxy-4,5-dimethylcyclohexyl)pyridin-3-yl)furo[3,2-b]pyridine-3-carboxamide] | ≤ 10 | 100 to 1000 | ≤ 10 |
| C[C@@H]1C[C@H](N)C[C@H](c2ccncc2NC(=O)c2c(N)oc3cc(C4CC4)cnc23)C1 [Example 133, 2-Amino-N-{4-[(1R,3S,5S)-3-amino-5-methylcyclohexyl]pyridin-3-yl}-6-cyclopropylfuro[3,2-b]pyridine-3-carboxamide] | ≤ 10 | ≤ 10 | ≤ 10 |
| CN1CC(c2cnc3c(C(=O)Nc4cnn(C)c4N4CCCC(N)CC4)c(N)sc3c2)C1 (stereo not drawn) [Example 32, 2-Amino-N-[5-(4-aminoazepan-1-yl)-1-methyl-1H-pyrazol-4-yl]-6-(1-methylazetidin-3-yl)thieno[3,2-b]pyridine-3-carboxamide] | ≤ 10 | 100 to 1000 | ≤ 10 |
| C[C@H]1CN(c2ccncc2NC(=O)c2c(N)oc3cc(C4CCC4)cnc23)C[C@@H](N)[C@@H]1O [Example 124, 2-Amino-N-{4-[(3R,4R,5S)-3-amino-4-hydroxy-5-methylpiperidin-1-yl]pyridin-3-yl}-6-cyclobutylfuro[3,2-b]pyridine-3-carboxamide] | ≤ 10 | ≤ 10 | ≤ 10 |
| C[C@H]1CN(c2ccncc2NC(=O)c2c(N)oc3cc(C(F)(F)F)cnc23)C[C@@H](N)[C@@H]1O [Example 68, 2-Amino-N-{4-[(3R,4R,5S)-3-amino-4-hydroxy-5-methylpiperidin-1-yl]pyridin-3-yl}-6-(trifluoromethyl)furo[3,2-b]pyridine-3-carboxamide] | ≤ 10 | 10 to 100 | ≤ 10 |
| COC1CCN(Cc2cnc3c(C(=O)Nc4cnccc4N4C[C@@H](N)C[C@@H](C(F)(F)F)C4)c(N)oc3c2)CC1 [Example 107, 2-Amino-N-{4-[(3S,5R)-3-amino-5-(trifluoromethyl)piperidin-1-yl]pyridin-3-yl}-6-[(4-methoxypiperidin-1-yl)methyl]furo[3,2-b]pyridine-3-carboxamide] | ≤ 10 | 10 to 100 | ≤ 10 |
| Cn1ncc(NC(=O)c2c(N)sc3cccnc23)c1N1CCCC(N)CC1 (stereo not drawn) [Example 1, 2-Amino-N-[5-(4-aminoazepan-1-yl)-1-methyl-1H-pyrazol-4-yl]thieno[3,2-b]pyridine-3-carboxamide] | ≤ 10 | 100 to 1000 | ≤ 10 |
| C[C@@H]1C[C@H](N)CN(c2ccncc2NC(=O)c2c(N)oc3cc(-c4c(F)cccc4F)cnc23)C1 [Example 119, 2-Amino-N-{4-[(3S,5R)-3-amino-5-methylpiperidin-1-yl]pyridin-3-yl}-6-(2,6-difluorophenyl)furo[3,2-b]pyridine-3-carboxamide] | ≤ 10 | 10 to 100 | ≤ 10 |
| COCCCc1cnc2c(C(=O)Nc3cnccc3N3C[C@H](C)C[C@H](N)C3)c(N)oc2c1 [Example 134, 2-Amino-N-{4-[(3S,5R)-3-amino-5-methylpiperidin-1-yl]pyridin-3-yl}-6-(3-methoxypropyl)furo[3,2-b]pyridine-3-carboxamide] | ≤ 10 | ≤ 10 | ≤ 10 |
| CCOC1CCN(Cc2cnc3c(C(=O)Nc4cnccc4N4C[C@@H](N)C[C@@H](C(F)(F)F)C4)c(N)oc3c2)C1 (stereo partly drawn) [Example 104, 2-Amino-N-{4-[(3S,5R)-3-amino-5-(trifluoromethyl)piperidin-1-yl]pyridin-3-yl}-6-[(3-ethoxypyrrolidin-1-yl)methyl]furo[3,2-b]pyridine-3-carboxamide] | ≤ 10 | 10 to 100 | ≤ 10 |
| C[C@@H]1C[C@H](N)CN(c2ccncc2NC(=O)c2c(N)sc3cccnc23)C1 [Example 15, 2-Amino-N-{4-[(3S,5R)-3-amino-5-methyl-piperidin-1-yl]pyridin-3-yl}-thieno[3,2-b]pyridine-3-carboxamide] | ≤ 10 | 100 to 1000 | ≤ 10 |
| CC(C)C(=O)Nc1cnc2c(C(=O)Nc3cnccc3N3C[C@@H](N)[C@H](O)[C@@H](C)C3)c(N)sc2c1 [Example 143, 2-Amino-N-(4-((3R,4R,5S)-3-amino-4-hydroxy-5-methylpiperidin-1-yl)pyridin-3-yl)-6-isobutyramidothieno[3,2-b]pyridine-3-carboxamide] | ≤ 10 | 10 to 100 | ≤ 10 |
| Cn1ncc(NC(=O)c2c(N)sc3cccnc23)c1-c1ccc2c(c1)C(N)CC2 (stereo not drawn) [Example 5, 2-Amino-N-[5-(3-amino-2,3-dihydro-1H-inden-5-yl)-1-methyl-1H-pyrazol-4-yl]thieno[3,2-b]pyridine-3-carboxamide] | ≤ 10 | 100 to 1000 | ≤ 10 |
| CCCc1cnc2c(C(=O)Nc3cnccc3N3C[C@@H](N)[C@](C)(O)[C@@H](C)C3)c(N)oc2c1 [Example 85, 2-Amino-N-{4-[(3R,4R,5S)-3-amino-4-hydroxy-4,5-dimethylpiperidin-1-yl]pyridin-3-yl}-6-propylfuro[3,2-b]pyridine-3-carboxamide] | ≤ 10 | ≤ 10 | ≤ 10 |
| Nc1oc2cc(C3CCC3)cnc2c1C(=O)Nc1cnccc1N1C[C@@H](N)[C@H](O)[C@@H](C2CC2)C1 [Example 125, 2-Amino-N-{4-[(3R,4R,5S)-3-amino-5-cyclopropyl-4-hydroxypiperidin-1-yl]pyridin-3-yl}-6-cyclobutylfuro[3,2-b]pyridine-3-carboxamide] | ≤ 10 | ≤ 10 | ≤ 10 |
| Cn1ncc(NC(=O)c2c(N)oc3cc(Cl)cnc23)c1N1CCCC(N)CC1 (stereo not drawn) [Example 57, 2-Amino-N-[5-(4-aminoazepan-1-yl)-1-methyl-1H-pyrazol-4-yl]-6-chlorofuro[3,2-b]pyridine-3-carboxamide] | ≤ 10 | 100 to 1000 | ≤ 10 |
| CC(C)N1CC(c2cnc3c(C(=O)Nc4cnccc4N4CCC[C@H](N)C4)c(N)sc3c2)C1 [Example 33, 2-Amino-N-{4-[(3S)-3-aminopiperidin-1-yl]pyridin-3-yl}-6-(1-isopropylazetidin-3-yl)thieno[3,2-b]pyridine-3-carboxamide] | ≤ 10 | > 2000 | 10 to 100 |
| CC(C)c1cnc2c(C(=O)Nc3cnccc3N3C[C@@H](N)[C@@H](n4ccnn4)[C@@H](C)C3)c(N)oc2c1 [Example 102, 2-Amino-N-{4-[(3R,4S,5S)-3-amino-5-methyl-4-(1H-1,2,3-triazol-1-yl)piperidin-1-yl]pyridin-3-yl}-6-isopropylfuro[3,2-b]pyridine-3-carboxamide] | ≤ 10 | 10 to 100 | ≤ 10 |
| Cn1ncc(NC(=O)c2c(N)sc3cccnc23)c1N1CCCNCC1 [Example 4, 2-Amino-N-[5-(1,4-diazepan-1-yl)-1-methyl-1H-pyrazol-4-yl]thieno[3,2-b]pyridine-3-carboxamide] | ≤ 10 | > 1000 | ≤ 10 |
